In the assay the test system is CD2F1 mice, L1210 leukemia ip, survival T/C. The assay is described as follows: NCI In Vivo Anticancer Drug Screen. Data for tumor model L1210 Leukemia (intraperitoneal) in CD2F1 (CDF1) mice. Particulars: higher = longer survival. In outline: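 Vehicle-treated tumor-bearing mice served as controls (C) for compound-treated mice (T). Reported figure is T divided by C.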

The mark [1] stands for this setting: endpoint: mean survival time, dose: 100.0 mg/kg/injection, schedule: Q01DX009 (ip), vehicle: saline with Tween-80.
Where [2] appears, read: endpoint: mean survival time, dose: 100.0 mg/kg/injection, schedule: Q04DX003 (ip), vehicle: saline with Tween-80.
[3] abbreviates: endpoint: mean survival time, dose: 200.0 mg/kg/injection, schedule: Q01DX009 (ip), vehicle: saline with Tween-80.
Where [4] appears, read: endpoint: mean survival time, dose: 200.0 mg/kg/injection, schedule: Q04DX003 (ip), vehicle: saline with Tween-80.
Setting [5] is: endpoint: mean survival time, dose: 400.0 mg/kg/injection, schedule: Q01DX009 (ip), vehicle: saline with Tween-80.
Setting [6] is: endpoint: mean survival time, dose: 400.0 mg/kg/injection, schedule: Q04DX003 (ip), vehicle: saline with Tween-80.
Setting [7] is: endpoint: mean survival time, dose: 25.0 mg/kg/injection, schedule: Q01DX009 (ip), vehicle: saline.
Where [8] appears, read: endpoint: mean survival time, dose: 50.0 mg/kg/injection, schedule: Q01DX009 (ip), vehicle: saline.
Where [9] appears, read: endpoint: mean survival time, dose: 100.0 mg/kg/injection, schedule: Q01DX009 (ip), vehicle: saline.
Setting [10] is: endpoint: mean survival time, dose: 100.0 mg/kg/injection, schedule: Q04DX003 (ip), vehicle: saline.

“And” between values parts separate entries of the source, which are not always exact repeats. Equal entries are not always repeated. Inconclusive results and toxic doses are left out.

`COc1ccc(/C=C2\OC(=O)C(Cc3cc(Cl)c4c(c3)OCO4)C2(O)C(C)C)cc1` (centres undefined): the T/C runs as follows: (endpoint: median survival time, dose: 6.13 mg/kg/injection, schedule: Q01DX005 (ip), vehicle: Klucel (hydroxypropylcellulose) (HPC)) 95 % of control; (endpoint: median survival time, dose: 12.25 mg/kg/injection, schedule: Q01DX005 (ip), vehicle: Klucel (hydroxypropylcellulose) (HPC)) 96 % of control; (endpoint: median survival time, dose: 24.5 mg/kg/injection, schedule: Q01DX005 (ip), vehicle: Klucel (hydroxypropylcellulose) (HPC)) 103 % of control; (endpoint: median survival time, dose: 49.0 mg/kg/injection, schedule: Q01DX005 (ip), vehicle: Klucel (hydroxypropylcellulose) (HPC)) 91 % of control.
Take `O=C(O)c1ccccc1C(=O)Nc1ccccc1C(F)(F)F`: the T/C is 104 % of control under setting [1]; 96 % of control under setting [2]; 106 % of control under setting [3]; 102 % of control under setting [4]; 95 % of control under setting [5]; 105 % of control under setting [6].
For the compound `O=S1(=O)CCC2CCCCC2C1` (centres undefined), the T/C by setting is: (endpoint: mean survival time, dose: 12.5 mg/kg/injection, schedule: Q04DX003 (ip), vehicle: saline with Tween-80) 103 % of control; (endpoint: mean survival time, dose: 25.0 mg/kg/injection, schedule: Q04DX003 (ip), vehicle: saline with Tween-80) 100 % of control.
For the compound `Cc1ccc(S(=O)(=O)Nc2ccc(I)cc2F)cc1`, the T/C was 101 % of control under setting [1], 97 % of control under setting [3] and 97 % of control under setting [5].
Regarding `CCC[CH2][Sn]([Cl])([CH2]Cl)[CH2]CCC`, the T/C was 98 % of control (endpoint: mean survival time, dose: 2.5 mg/kg/injection, schedule: Q04DX003 (ip), vehicle: saline) and 97 % of control (endpoint: mean survival time, dose: 5.0 mg/kg/injection, schedule: Q04DX003 (ip), vehicle: saline).
For `O=C(O)C(O)(Cl)c1cccs1` (centres undefined), the T/C was 98 % of control under setting [2], 95 % of control under setting [4] and 95 % of control under setting [6].
For the compound `Cc1cn(C2CC(O)C(Cn3ccc4ccccc43)O2)c(=O)[nH]c1=O` (centres undefined), the T/C (endpoint: mean survival time, dose: 12.5 mg/kg/injection, schedule: Q01DX005 (ip), vehicle: Klucel (hydroxypropylcellulose) (HPC)) was 94 % of control and the T/C (endpoint: mean survival time, dose: 25.0 mg/kg/injection, schedule: Q01DX005 (ip), vehicle: Klucel (hydroxypropylcellulose) (HPC)) was 90 % of control.
Regarding `O=[N+]([O-])c1ccc2c(c1)CS(=O)(=O)C2`, the T/C is 101 % of control under setting [1]; 96 % of control under setting [2]; 101 % of control under setting [3]; 90 % of control under setting [4]; 101 % of control under setting [5]; 96 % of control under setting [6].
With `O=CNc1ccc(C(=O)O)cc1`, the T/C under setting [2] was 94 % of control, the T/C under setting [4] was 94 % of control and the T/C under setting [6] is 100 % of control.
`c1ccc2c[n+](CCc3c[nH]c4ccccc34)ccc2c1`: the T/C was 100 % of control (endpoint: mean survival time, dose: 25.0 mg/kg/injection, schedule: Q04DX002 (ip), vehicle: other) and 104 % of control (endpoint: mean survival time, dose: 50.0 mg/kg/injection, schedule: Q04DX002 (ip), vehicle: other).
Regarding `Cc1cc(=O)[nH]c(O)c1C#N`, the T/C by setting is: under setting [2], 96 % of control; under setting [4], 94 % of control; under setting [6], 94 % of control.
Take `CC(CO)CCC(=O)C(C)C1C2(CC3C4CCC5CC(O)CCC5(C)C4CCC31C)SCCS2` (centres undefined): the T/C (endpoint: mean survival time, dose: 100.0 mg/kg/injection, schedule: Q04DX002 (ip), vehicle: saline with Tween-80) is 86 % of control and the T/C (endpoint: mean survival time, dose: 400.0 mg/kg/injection, schedule: Q04DX002 (ip), vehicle: saline with Tween-80) is 92 % of control.
As to `Brc1cccc2c1CCCC2`, the T/C runs as follows: under setting [2], 97 % of control; under setting [4], 95 % of control; under setting [6], 103 % of control.
Consider `NC(=S)/N=C\C(CC(O)C(O)C(O)CO)=N\NC(N)=S` (centres undefined), for which the T/C (endpoint: mean survival time, dose: 6.25 mg/kg/injection, schedule: Q01DX009 (ip), vehicle: saline with Tween-80) was 96 % of control; the T/C (endpoint: mean survival time, dose: 12.5 mg/kg/injection, schedule: Q01DX009 (ip), vehicle: saline with Tween-80) was 96 % of control; the T/C (endpoint: mean survival time, dose: 25.0 mg/kg/injection, schedule: Q01DX009 (ip), vehicle: saline with Tween-80) is 95 % of control and 100 % of control; the T/C (endpoint: mean survival time, dose: 50.0 mg/kg/injection, schedule: Q01DX009 (ip), vehicle: saline with Tween-80) was 93 % of control and 101 % of control; the T/C under setting [1] was 101 % of control; the T/C under setting [3] was 86 % of control.
As to `CCCOP(=O)(N1CC1(C)C)N1CC1(C)C` (centres undefined), the T/C is 101 % of control (endpoint: mean survival time, dose: 6.3 mg/kg/injection, schedule: Q04DX003 (ip), vehicle: saline); 101 % of control (endpoint: mean survival time, dose: 12.5 mg/kg/injection, schedule: Q04DX003 (ip), vehicle: saline); 119 % of control under setting [7]; 124 % of control (endpoint: mean survival time, dose: 25.0 mg/kg/injection, schedule: Q04DX003 (ip), vehicle: saline); 188 % of control under setting [8]; 156 % of control and 186 % of control under setting [9]. In addition, the T/C under setting [10] was 124 % of control.
Take `N#CCc1nn(C2OC(CO)C(O)C2O)nc1C(N)=O` (centres undefined): the T/C is, setting by setting: (endpoint: median survival time, dose: 8.5 mg/kg/injection, schedule: Q01DX005 (ip), vehicle: water) 103 % of control; (endpoint: median survival time, dose: 17.0 mg/kg/injection, schedule: Q01DX005 (ip), vehicle: water) 103 % of control; (endpoint: median survival time, dose: 34.0 mg/kg/injection, schedule: Q01DX005 (ip), vehicle: water) 100 % of control; (endpoint: median survival time, dose: 38.0 mg/kg/injection, schedule: Q01DX005 (ip), vehicle: water) 97 % of control; (endpoint: median survival time, dose: 136.0 mg/kg/injection, schedule: Q01DX005 (ip), vehicle: water) 100 % of control.
For the compound `CC1CC(C)/C(=N/NC(N)=S)C(C(O)CC2CC(=O)NC(=O)C2)C1` (centres undefined), the T/C reads like this: under setting [7], 94 % of control and 100 % of control; under setting [8], 100 % of control and 102 % of control; under setting [9], 97 % of control and 103 % of control; (endpoint: mean survival time, dose: 200.0 mg/kg/injection, schedule: Q01DX009 (ip), vehicle: saline) 113 % of control and 102 % of control; (endpoint: mean survival time, dose: 400.0 mg/kg/injection, schedule: Q01DX009 (ip), vehicle: saline) 113 % of control and 114 % of control.
`Nc1cc(S(=O)(=O)O)c2cccnc2c1O`: the T/C is 114 % of control under setting [10] and 108 % of control (endpoint: mean survival time, dose: 200.0 mg/kg/injection, schedule: Q04DX003 (ip), vehicle: saline).
`C[N+](C)(C)C.N=C=O.N=C=O.N=C=O.N=C=O.[Co+2]`: the T/C (endpoint: mean survival time, dose: 10.0 mg/kg/injection, schedule: Q01DX009 (ip), vehicle: saline) was 98 % of control.
Turning to `c1cn[nH]c1`, the T/C (endpoint: median survival time, dose: 12.5 mg/kg/injection, schedule: Q01DX009 (ip), vehicle: saline + alcohol) is 103 % of control and 105 % of control; the T/C (endpoint: median survival time, dose: 12.5 mg/kg/injection, schedule: Q01DX009 (ip), vehicle: saline) is 95 % of control; the T/C (endpoint: median survival time, dose: 25.0 mg/kg/injection, schedule: Q01DX009 (ip), vehicle: saline + alcohol) was 101 % of control and 110 % of control; the T/C (endpoint: median survival time, dose: 25.0 mg/kg/injection, schedule: Q01DX009 (ip), vehicle: saline) is 102 % of control; the T/C (endpoint: median survival time, dose: 50.0 mg/kg/injection, schedule: Q01DX009 (ip), vehicle: saline + alcohol) is 121 % of control and 105 % of control; the T/C (endpoint: median survival time, dose: 50.0 mg/kg/injection, schedule: Q01DX009 (ip), vehicle: saline) is 112 % of control. Besides, the T/C (endpoint: median survival time, dose: 100.0 mg/kg/injection, schedule: Q01DX009 (ip), vehicle: saline + alcohol) is 117 % of control; the T/C (endpoint: median survival time, dose: 200.0 mg/kg/injection, schedule: Q01DX009 (ip), vehicle: saline + alcohol) is 90 % of control and 102 % of control; the T/C (endpoint: median survival time, dose: 200.0 mg/kg/injection, schedule: Q01DX009 (ip), vehicle: saline) was 90 % of control.
On to `NN=C(c1ccccc1)c1ccccc1`, for which the T/C is 93 % of control (endpoint: mean survival time, dose: 150.0 mg/kg/injection, schedule: Q04DX003 (ip), vehicle: Klucel (hydroxypropylcellulose) (HPC)); 95 % of control (endpoint: mean survival time, dose: 225.0 mg/kg/injection, schedule: Q04DX003 (ip), vehicle: Klucel (hydroxypropylcellulose) (HPC)); 98 % of control (endpoint: mean survival time, dose: 335.0 mg/kg/injection, schedule: Q04DX003 (ip), vehicle: Klucel (hydroxypropylcellulose) (HPC)).
Turning to `Clc1ccc2c(c1)[N-]c1ccccc1S2.Clc1ccc2c(c1)[N-]c1ccccc1S2.[Cl][Pt+2][Cl]`, the T/C reads like this: (endpoint: mean survival time, dose: 3.8 mg/kg/injection, schedule: Q04DX003 (ip), vehicle: saline with Tween-80) 102 % of control; (endpoint: mean survival time, dose: 7.5 mg/kg/injection, schedule: Q04DX003 (ip), vehicle: saline with Tween-80) 102 % of control; (endpoint: mean survival time, dose: 15.0 mg/kg/injection, schedule: Q04DX003 (ip), vehicle: saline with Tween-80) 90 % of control; (endpoint: mean survival time, dose: 30.0 mg/kg/injection, schedule: Q04DX003 (ip), vehicle: saline with Tween-80) 94 % of control; (endpoint: mean survival time, dose: 60.0 mg/kg/injection, schedule: Q04DX003 (ip), vehicle: saline with Tween-80) 90 % of control.

Values taken from PubChem BioAssay AID256 (DTP/NCI, 2004).
